# Experimental data from US7192722B2, “Phenethanolamine-derived haptens, immunogens, antibodies and conjugates” (Randox Laboratories, priority 2004, dated 2007).
# Several values for one entry are separate records, joined by “and”; a condition that tells them apart may be missing. Identical values can stand only once.
# Tests used:
# [1] = tested on: IgG fraction of the antiserum raised to immunogen A (hapten A-BSA); test: Competitive ELISA for ractopamine, Example 22 a): antiserum to immunogen A, conjugate A (hapten A-HRP); type: binding, sheep; conditions: for % CR: cross-reactivity relative to ractopamine = 100%
# Procedure: (§1) An aqueous solution of each immunogen was formulated with Freund's Complete Adjuvant (FCA) to form an emulsion consisting of 2 mg/ml immunogen in 50% (v/v) FCA. Three sheep were immunised with this emulsion (1° immunisation), 0.25 ml being subcutaneously injected at each of four sites in the flank of each animal. Subsequent immunizations (boosts) contained 1 mg/ml immunogen. All boosts were emulsified in 50% (v/v) Freund's Incomplete Adjuvant (FIA) and were administered in the same manner as the 1° immunisation, at monthly intervals for 1 year. Blood sampling took place 7 to 14 days after each boost. Each sample was processed to produce antiserum, which was further purified by caprylic acid and ammonium sulfate precipitation to yield an immunoglobulin G (IgG) fraction.
# The appropriate antibody coating dilution was determined using standard ELISA checkerboard techniques. The plate was incubated for 2 hours at 37° C., washed 4 times with Tris buffered saline containing Tween 20 (TBST) and tapped dry. Standard solutions of ractopamine were prepared in TBST at 0, 0.05, 0.1, 0.5, 1, and 5 ng/ml, and 50 μl of each was added to the appropriate wells. […] The appropriate dilution of conjugate was also determined using standard ELISA checkerboard techniques. The plate was incubated at 37° C. for 2 hours. Excess unbound conjugate was removed by washing 6 times over a 10 minute period with TBST. 125 μl of tetramethylbenzidine (TMB) substrate solution was added to each well of the plate that was then incubated for 15 to 20 minutes in the dark at room temperature. The reaction was terminated by addition of 125 μl 0.2M H2SO4 to each well. The absorbance was then measured at 450 nm using a microtiter plate reader.
# (§2) Employing each series of standards in the ractopamine competitive ELISAs, calibration curves were generated and these were used to determine the cross-reactivity of each immunoassay with these substances.
# [2] = tested on: IgG fraction of the antiserum raised to immunogen C (hapten C-BSA); test: Competitive ELISA for ractopamine, Example 22 b): antiserum to immunogen C, conjugate C (hapten C-HRP); type: binding, sheep; conditions: for % CR: cross-reactivity relative to ractopamine = 100%
# Procedure: as §1
# The same definitions apply for A450, B, B0 and IC50.
# as §2
# [3] = tested on: Shelver polyclonal antiserum (ractopamine-hemiglutarate-KLH); conditions: Shelver pAb, cited from earlier work; for % CR: relative to ractopamine = 100%
# [4] = tested on: Shelver monoclonal antibody (5G10); conditions: Shelver mAb, cited from earlier work; for % CR: relative to ractopamine = 100%
# [5] = tested on: IgG fraction of the antiserum raised to immunogen D (hapten D-BSA); test: Competitive ELISA for isoxsuprine, Example 24: antiserum to immunogen D, conjugate D (hapten D-HRP); type: binding; conditions: for % CR: cross-reactivity relative to isoxsuprine = 100%
# [6] = tested on: IgG fraction of the antiserum raised to immunogen E (hapten E-BSA); test: Competitive ELISA for ritodrine, Example 25: antiserum to immunogen E, conjugate E (hapten E-HRP); type: binding; conditions: for % CR: cross-reactivity relative to ritodrine = 100%
# [7] = tested on: Haasnoot antibody derived from a fenoterol derivative; conditions: cited from earlier work
Compound,% CR [1] [%],% CR [2] [%],IC50 CR [3],% CR [3] [%],IC50 CR [4],% CR [4] [%],other results
CC(C)NCC(O)c1ccc(O)c(O)c1 (racemic) [DL-Isoproterenol],<0.16,<0.5,">100,000 ng/ml",<0.01,,,
CC(C)NC[C@H](O)c1ccc(O)c(O)c1 [(−) Isoproterenol],<0.16,<0.01,,,,,
CCCCNCC(O)c1ccc(O)cc1 (stereo not drawn) [Bamethane],<0.16,<0.01,"2,900 ng/ml",0.1,831 ng/mL,0.3,
CC(C)NCC(O)c1ccc(N)c(C#N)c1 (stereo not drawn) [Cimaterol],<0.16,<0.01,,,,,
CC(C)(C)NCC(O)c1cc(Cl)c(N)c(Cl)c1 (stereo not drawn) [Clenbuterol],<0.16,<0.01,">100,000 ng/ml",<0.01,,<0.1,
CC(CCc1ccc(O)cc1)NCCc1ccc(O)c(O)c1 (stereo not drawn) [Dobutamine],0.186,<0.8,12.7 ng/mL,33,50.3 ng/mL,5.3,% CR ([1]; listed as dobutamine): 0.186% and < 0.8%; % CR ([2]; listed as dobutamine): < 0.8%; % CR [5]: <0.1%; % CR [6]: <5.0%
NCCc1ccc(O)c(O)c1 [Dopamine],<0.16,<0.01,,,,,
CC(Cc1ccc(O)cc1)NCC(O)c1cc(O)cc(O)c1 (stereo not drawn) [Fenoterol],<0.16,<0.05,310 ng/mL,1.3,"2,682 ng/ml",0.1,
CC(COc1ccccc1)NC(C)C(O)c1ccc(O)cc1 (stereo not drawn) [Isoxsuprine],<0.16,<0.6,"6,200 ng/ml",0.1,"1,391 ng/ml",0.2,% CR [5]: 100%; % B/B0 ([5]; isoxsuprine 0.5 ng/ml): 31.6%; % B/B0 ([5]; isoxsuprine 1 ng/ml): 17.0%; % B/B0 ([5]; isoxsuprine 5 ng/ml): 6.7%; % B/B0 ([5]; isoxsuprine 10 ng/ml): 4.9%; % B/B0 ([5]; isoxsuprine 50 ng/ml): 1.5%; % B/B0 ([5]; isoxsuprine 100 ng/ml): 1.3%; % B/B0 ([5]; isoxsuprine 200 ng/ml): 0.9%; % CR [6]: 20.2%
CC(C)(C)NCC(O)c1cc(Cl)c(N)c(C(F)(F)F)c1 (stereo not drawn) [Mabuterol],<0.16,<0.01,,,,,
CC(C)NCC(O)c1cc(O)cc(O)c1 (stereo not drawn) [Metaproterenol],<0.16,<0.01,">100,000 ng/ml",<0.01,,,
CC(C)(C)NCC(O)c1ccc(O)c(CO)n1 (stereo not drawn) [Pirbuterol],<0.16,<0.05,,,,,
CC(CCc1ccc(O)cc1)NCC(O)c1ccc(O)cc1 (stereo not drawn) [Ractopamine],100,100,4.2 ng/mL,100,2.69 ng/mL,100,% B/B0 ([1]; ractopamine 0.05 ng/ml): 53.5%; % B/B0 ([1]; ractopamine 0.1 ng/ml): 49.5%; % B/B0 ([1]; ractopamine 0.5 ng/ml): 23.7%; % B/B0 ([1]; ractopamine 1 ng/ml): 16.9%; % B/B0 ([1]; ractopamine 5 ng/ml): 6.33%; % B/B0 ([2]; ractopamine 0.025 ng/ml): 84%; % B/B0 ([2]; ractopamine 0.1 ng/ml): 65%; % B/B0 ([2]; ractopamine 0.25 ng/ml): 46%; % B/B0 ([2]; ractopamine 0.5 ng/ml): 34%; % B/B0 ([2]; ractopamine 1 ng/ml): 24%; % CR [5]: <0.1%; % CR [6]: <0.5%; cross-reactivity [7]: 20%
CC(NCCc1ccc(O)cc1)C(O)c1ccc(O)cc1 (stereo not drawn) [Ritodrine],<0.16,<0.5,577 ng/mL,0.8,73.8 ng/mL,3.6,% CR [5]: <0.1%; % CR [6]: 100%; % B/B0 ([6]; ritodrine 1 ng/ml): 92.0%; % B/B0 ([6]; ritodrine 5 ng/ml): 82.3%; % B/B0 ([6]; ritodrine 10 ng/ml): 80.2%; % B/B0 ([6]; ritodrine 50 ng/ml): 64.7%; % B/B0 ([6]; ritodrine 100 ng/ml): 55.9%; % B/B0 ([6]; ritodrine 500 ng/ml): 30.0%; % B/B0 ([6]; ritodrine 1000 ng/ml): 22.6%
CC(C)(C)NCC(O)c1ccc(O)c(CO)c1 (stereo not drawn) [Salbutamol],<0.16,<0.01,"79,000 ng/ml",<0.01,,<0.1,
OCc1cc(C(O)CNCCCCCCOCCCCc2ccccc2)ccc1O (stereo not drawn) [Salmeterol Xinafoate],<0.16,<0.5,"1,800 ng/ml",0.2,1519 ng/mL,0.2,
CC(C)(C)NCC(O)c1cc(O)cc(O)c1 (stereo not drawn) [Terbutaline],<0.16,<0.01,,,,,
CC(C)(C)NCC(O)c1ccccc1Cl (stereo not drawn) [Tulobuterol],<0.16,<0.05,,,,,
Methyl Clenbuterol,<0.16,<0.05,,,,,
